# According to patent publication US9399042B2, “Method for the removal of subcutaneous fat accumulations by subcutaneous lipolysis by administering a combination of glycyrrhizic acid and soybean phospholipids” (Lichtblick GmbH, priority 2010, dated 2016):
# Entries after “also recorded” stand apart in the source; their conditions may differ. Where two headings read alike, the source gives them in different places.
# What was measured:
# 3T3-L1 cells [1] = test: Lipolysis assay (glycerol release) with differentiated 3T3-L1 cells; type: cell-based, murine; conditions: 10 μM, 4 hours, 3% BSA/PBS; positive control
# Protocol: 3T3-L1 cells were stimulated by a hormone cocktail to adipogenesis and differentiated for another 8 days to mature adipocytes. […] The lipolytic activity was measured using a lipolysis assay, as described below: The cleavage of triglycerides into glycerol and the three fatty acids is known as lipolysis. This process is catalyzed primarily by the hormone-sensitive lipase and the adipose triglyceride lipase. Using a lipolysis assay the lipolytic activity of cells can be detected. This assay is based on the measurement of glycerol emerged during lipolysis, which is secreted by the cells into the medium. The glycerol is metabolized by enzymatic reactions to glycerol-1-phosphate and then to dihydroxy acetone phosphate. Thereby hydrogen peroxide is produced, which is quantified photometrically with a peroxidase stain reaction. In order to be able to make statements about the lipolytic action of substances, they are compared with the basal lipolysis activity of the cells and with the lipolysis stimulated by the beta-adrenergic receptor. Such a stimulation can be caused by isoproterenol. FIG. 7: Graphical picture of the analysis of the lipolysis assay (μg glycerol/μg DNA) with treated differentiated 3T3-L1 cells. 3T3-L1 were stimulated by a hormonal induction cocktail to adipogenesis and then differentiated for 8 days. […]
# [2] = tested on: Adipose-Derived Stem Cells (ADSC); test: Propidium iodide (PI) staining of treated differentiated ADSCs (CLSM); type: cell-based, human
# Protocol: Further analysis of the cell-damaging effect of sodium deoxycholate on ADSCs was performed by PI staining of the treated cells and subsequent analysis with CLSM. The differentiated, mature adipocytes were treated with: • 0.05 mg/ml, 0.1 mg/ml and 0.5 mg/ml sodium deoxycholate for 4 hours.
# Then the cells were incubated in a medium containing 5 µg/ml propidium iodide for 5 minutes. This was followed by microscopic analysis with CLSM at a 63-fold magnification (FIG. 3c).
# (§1) After the incubation period (4 hours) the adipocytes were stained with 5 μm/ml PI and analyzed with CLSM. In the upper PI-row (a-e) fluorescence images of PI-stained cells are shown. In the lower PK-row (a-e) the corresponding phase contrast images are presented with the overlapping fluorescence images over one another.
# A further analysis of a cell-damaging effect of phosphatidyl choline on ADSCs was performed by PI staining of the treated cells and subsequent analysis with CLSM. The differentiated, mature adipocytes were treated with: • 5 mg/ml, 10 mg/ml and 15 mg/ml phosphatidyl choline for 4 hours.
# Then the cells were incubated in a medium containing 5 μg/ml propidium iodide for 5 minutes. This was followed by microscopic analysis with CLSM at a 63-fold magnification (FIG. 4c).
# as §1, with “μg/ml” for “μm/ml”, “another (Size bar=20 μm).” for “another.”
# [3] = tested on: Adipose-Derived Stem Cells (ADSC); test: Membrane damaging effect on differentiated ADSCs (light microscopy, CLSM); type: cell-based, human; conditions: 4 hours
# Source text: The human subcutaneous adipose tissue can serve as a potential source of adult stem cells. These so-called “Adipose-Derived Stem Cells” (ADSC) are multipotent and may be differentiated by appropriate stimuli into various cell types, e.g. osteoblasts, chondrocytes, adipocytes. The isolation of ADSCs from human subcutaneous adipose tissue which is removed during plastic reductive surgery, is shown schematically in FIG. 2.
# First the fat was washed with buffer to remove hematopoietic cells, and then crushed. The resulting pieces of fatty tissue were digested with collagenase. By centrifugation of the digested tissue the stromal-vascular fraction was separated and the floated mature adipocytes were discarded. The stromal-vascular fraction in the pellet is composed of a heterogeneous cell population of blood cells, fibroblasts, pericytes, endothelial cells and preadipocytes.
# This cell population was transferred into a culture bottle with medium, wherein a portion of the cells adhered. By adding a suitable cocktail consisting of insulin, dexamethasone, indomethacin and isobutylmethylxanthine or consisting of insulin, cortisol, troglitazone, triiodothyronine and isobutylmethylxanthine the cells were stimulated for adipogenesis and an improved adipogenic differentiation was achieved.
# The ADSCs of Example 4 were stimulated by a hormone cocktail (insulin, cortisol, troglitazone, triiodothyronine and isobutylmethylxanthine) to adipogenesis and then differentiated for another 21 days into mature adipocytes.
# This was followed by a treatment with sodium deoxycholate. For this the following concentrations were used: • 0.01 mg/ml, 0.05 mg/ml, 0.075 mg/ml, 0.1 mg/ml and 0.5 mg/ml.
# The incubation period was 4 hours.
# This concentration range has been already proven to be effective in 3T3-L1. After the incubation period of 4 hours, the differentiated treated cells were subsequently viewed by light microscopy (FIG. 3a).
# Additionally, ADSCs treated with sodium deoxycholate were examined with CLSM. The differentiated, mature adipocytes were treated with: • 0.01 mg/ml, 0.05 mg/ml and 0.1 mg/ml sodium deoxycholate for 4 hours.
# This was followed by microscopic analysis with CLSM at a 63-fold magnification (FIG. 3b). […]
# 3T3-L1 cells [4] = test: Membrane damaging / cytotoxic effect on differentiated 3T3-L1 cells (light microscopy, CLSM phase contrast); type: cell-based, murine; conditions: for In vitro Cell damaging causing concentration: single agent
# Protocol: In order to test in vitro the effects of phosphatidyl choline on the membrane integrity and stability, differentiated 3T3-L1 cells were incubated with different concentrations of phosphatidyl choline for 4 and 24 hours and then analyzed by light microscopy.
# As a model system, the murine preadipocyte cell line 3T3-L1 was used for the studies. 3T3-L1 cells were stimulated to adipogenesis by a conventional hormone cocktail (corticosterone, isobutylmethylxanthine, indomethacin, insulin) and differentiated for another 8 days to mature adipocytes.
# The mature adipocytes of the 3T3-L1 cells were treated with various concentrations of phosphatidyl choline.
# First, a phosphatidyl choline stock solution was prepared: • 500 mg/ml phosphatidyl choline dissolved in 70% ethanol
# The used concentrations of phosphatidyl choline were: • 1 mg/ml, 5 mg/ml, 10 mg/ml, 15 mg/ml, 20 mg/ml
# FIG. 1a: Phase contrast images of treated differentiated 3T3-L1 cells in 2D cell culture. The treatment was as follows: • (a) control=untreated cells in differentiation medium • (b) 1 mg/ml of phosphatidyl choline after 24 hours • (b) 5 mg/ml of phosphatidyl choline after 24 hours • (d) 10 mg/ml of phosphatidyl choline after 24 hours • (e) 15 mg/ml of phosphatidyl choline after 24 hours • (f) 20 mg/ml of phosphatidyl choline after 24 hours • (Size bar=100 μm).
# FIG. 1b: Phase contrast images using a CLSM at a 63-fold magnification of treated differentiated 3T3-L1 cells in 2D cell culture. The treatment was as follows: • (a) control=untreated cells in differentiation medium after 4 hours • (b) 1 mg/ml of phosphatidyl choline after 4 hours • (c) 5 mg/ml of phosphatidyl choline after 4 hours • (d) 10 mg/ml of phosphatidyl choline after 4 hours • (Size bar=20 μm).
# As a model system the murine preadipocyte cell line 3T3-L1 was used for the studies. 3T3-L1 cells were stimulated by a hormone cocktail (corticosterone, isobutylmethylxanthine, indomethacin, insulin) to adipogenesis and differentiated for another 8 days to mature adipocytes.
# The mature adipocytes of 3T3-L1 cells were incubated with various concentrations of phosphatidyl choline between 0.1 mg/ml and 50 mg/ml. The phosphatidyl choline was combined with 2-20 mg/ml glycyrrhizinate and 18-180 mg/ml maltose.
# The incubation of mature 3T3-L1 cells was performed for a duration of 4 hours with the substances combination.
# Then the treated cells were examined at a 63-fold magnification by light microscopy for a membrane destabilizing and cytotoxic effect.
# FIG. 9: Phase contrast images of treated differentiated 3T3-L1 cells. 3T3-L1 were stimulated by a hormonal induction cocktail to adipogenesis and then differentiated for 8 days. The mature adipocytes were treated for 24 hours with phosphatidyl choline and sodium deoxycholate from Lipostabil® with the following concentrations: • (a) untreated cells in differentiation medium, • (b) 0.01 mg/ml phosphatidyl choline+0.005 mg/ml Na-deoxycholate, • (c) 0.1 mg/ml phosphatidyl choline+0.05 mg/ml Na-deoxycholate, • (d) 0.25 mg/ml phosphatidyl choline+0.125 mg/ml Na-deoxycholate, • (e) 0.5 mg/ml phosphatidyl choline+0.25 mg/ml Na-deoxycholate, • (f) 1 mg/ml phosphatidyl choline+0.5 mg/ml Na-deoxycholate.
# The analysis was done using the light microscope. Cells with damaged membrane or cell fragments are marked examplary with black arrows, while free lipid droplets are indicated by white arrows.
molecule,measurement,setting,value
CC(C)NCC(O)c1ccc(O)c(O)c1 (centres unmarked) [isoproterenol],lipolytic activity compared to the basal level,3T3-L1 cells [1],eight times the basal level
Triton,PI staining (membrane integrity),[2],red cells stained by PI
sodium deoxycholate [Na-deoxycholate],membrane damaging / cytotoxic effect,[3]; 0.01 mg/ml,no effect on the cells; also recorded: no cytotoxic effect
same,membrane damaging / cytotoxic effect,[3]; 0.05 mg/ml,slight damages of the cell membrane
same,membrane damaging / cytotoxic effect,"[3]; 0.05 mg/ml, listed as Na-DC",injury
same,membrane damaging / cytotoxic effect,"[3]; 0.1 mg/ml, CLSM",strong membrane damage
same,membrane damaging / cytotoxic effect,[3]; 0.5 mg/ml,significantly toxic effect on the cells
same,membrane damaging / cytotoxic effect,"[3]; 0.5 mg/ml, listed as Na-DC",dead
same,PI staining (membrane integrity),"[2]; 0.05 mg/ml, 4 hours",no red-stained cells
same,PI staining (membrane integrity),"[2]; 0.1 mg/ml, 4 hours",individual red-stained cells
same,PI staining (membrane integrity),"[2]; 0.5 mg/ml, 4 hours",many and clearly red-stained cells
same,PI staining (membrane integrity),"[2]; 5, 10 and 15 mg/ml, 4 hours",no red-stained cells
same,membrane damaging effect,3T3-L1 cells [4]; 0.05 mg/ml,membrane-damaging effects occurred
same,membrane damaging effect,3T3-L1 cells [4]; 0.5 mg/ml,highly toxic
same,effect on the cell membrane,3T3-L1 cells [4]; 20 mg/ml,clear destruction of the cell membrane
same,In vitro Cell damaging causing concentration,3T3-L1 cells [4],≥ 0.05 mg/mL
same,In vitro Cell damaging causing concentration,3T3-L1 cells [4]; listed as Na Deoxycholate,from 0.05 mg/ml
